Experimental data taken from ChEMBL document CHEMBL1201862, “PubChem BioAssay data set” (2004).
The source made the active and inactive calls.

Assays:
[1] = target: T1, High affinity choline transporter 1 (Homo sapiens, UniProt Q9GZV3); test: CHT inhibitors, dose response, cell-based, 5-point CRC, membrane potential dye (AID 504840); assay type: functional
T1 sequence (Q9GZV3 whole entry): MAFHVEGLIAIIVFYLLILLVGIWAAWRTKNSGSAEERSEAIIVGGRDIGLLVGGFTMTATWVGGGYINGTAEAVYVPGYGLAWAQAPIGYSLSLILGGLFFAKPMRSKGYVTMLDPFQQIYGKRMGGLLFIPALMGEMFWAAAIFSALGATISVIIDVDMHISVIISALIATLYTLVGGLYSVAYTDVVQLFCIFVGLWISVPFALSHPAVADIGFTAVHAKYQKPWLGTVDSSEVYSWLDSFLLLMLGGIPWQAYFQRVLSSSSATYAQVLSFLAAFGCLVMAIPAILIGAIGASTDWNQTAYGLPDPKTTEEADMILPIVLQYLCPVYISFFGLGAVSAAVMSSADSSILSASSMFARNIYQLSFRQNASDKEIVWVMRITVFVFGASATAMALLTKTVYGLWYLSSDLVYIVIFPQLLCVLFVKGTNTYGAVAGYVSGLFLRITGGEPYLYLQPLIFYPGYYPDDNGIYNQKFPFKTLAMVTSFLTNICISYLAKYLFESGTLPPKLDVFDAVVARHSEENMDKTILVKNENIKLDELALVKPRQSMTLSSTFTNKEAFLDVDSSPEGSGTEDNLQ

[2] = target: Phospholipase A2 (Homo sapiens, UniProt P04054); assay type: functional;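 further: confirmatory dose-response counterscreen on phospholipase A2, testing hits that came from an ultra-high-throughput screen for ATG4B inhibitors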
[3] = target: T2, SUMO-activating enzyme (Homo sapiens, UniProt Q9UBT2); test: inhibitors of in vitro SUMOylation cascade, primary screen, biochemical, HTRF, uHTS (AID 2006); assay type: protein-complex assay
[4] = target: T2, SUMO-activating enzyme; test: SUMOylation inhibitor hit validation, confirmation, SUMOylation inhibitor project, biochemical, AlphaScreen (AID 2018); assay type: functional
[5] = target: T3, Aminopeptidase N (Plasmodium falciparum FcB1/Columbia, UniProt O96935); test: P. falciparum M1AAP inhibitors, biochemical, fluorogenic H-Leu-NHMec substrate, 1536-well (AID 1445); set-up: species or system Plasmodium falciparum 3D7, 3D7
T3 sequence (O96935 whole entry): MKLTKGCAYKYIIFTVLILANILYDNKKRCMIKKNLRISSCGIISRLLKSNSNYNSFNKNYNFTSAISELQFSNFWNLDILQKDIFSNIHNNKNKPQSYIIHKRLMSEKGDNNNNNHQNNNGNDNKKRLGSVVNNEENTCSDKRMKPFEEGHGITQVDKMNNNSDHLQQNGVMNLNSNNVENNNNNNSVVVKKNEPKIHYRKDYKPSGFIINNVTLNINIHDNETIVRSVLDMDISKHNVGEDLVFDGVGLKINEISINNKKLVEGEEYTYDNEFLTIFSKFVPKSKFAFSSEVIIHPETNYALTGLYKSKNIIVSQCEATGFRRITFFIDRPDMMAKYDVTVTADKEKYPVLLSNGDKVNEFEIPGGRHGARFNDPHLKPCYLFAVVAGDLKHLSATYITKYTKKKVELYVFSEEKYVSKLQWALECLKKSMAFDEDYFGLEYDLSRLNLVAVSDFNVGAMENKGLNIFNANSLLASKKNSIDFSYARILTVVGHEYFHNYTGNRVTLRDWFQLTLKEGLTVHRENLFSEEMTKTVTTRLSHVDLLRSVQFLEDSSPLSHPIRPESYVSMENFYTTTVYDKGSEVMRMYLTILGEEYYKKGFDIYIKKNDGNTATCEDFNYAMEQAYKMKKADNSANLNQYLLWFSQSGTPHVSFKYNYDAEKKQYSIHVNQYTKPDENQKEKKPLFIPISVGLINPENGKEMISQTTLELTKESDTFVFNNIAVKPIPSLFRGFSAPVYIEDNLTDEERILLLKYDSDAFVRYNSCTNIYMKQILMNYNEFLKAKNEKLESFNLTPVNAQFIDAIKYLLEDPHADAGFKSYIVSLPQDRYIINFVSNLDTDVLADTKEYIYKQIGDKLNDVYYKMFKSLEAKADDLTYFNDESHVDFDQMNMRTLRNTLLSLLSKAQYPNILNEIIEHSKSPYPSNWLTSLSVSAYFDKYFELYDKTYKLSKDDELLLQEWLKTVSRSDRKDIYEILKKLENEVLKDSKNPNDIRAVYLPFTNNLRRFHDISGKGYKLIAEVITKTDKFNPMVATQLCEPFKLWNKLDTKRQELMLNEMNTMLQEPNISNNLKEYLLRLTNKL

[6] = target: T4, Cysteine protease ATG4B (Homo sapiens, UniProt Q9Y4P1); assay type: functional;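 further: Fluorescence-based dose-response confirmation assay measuring inhibition of ATG4B activity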
T4 sequence (Q9Y4P1 whole entry): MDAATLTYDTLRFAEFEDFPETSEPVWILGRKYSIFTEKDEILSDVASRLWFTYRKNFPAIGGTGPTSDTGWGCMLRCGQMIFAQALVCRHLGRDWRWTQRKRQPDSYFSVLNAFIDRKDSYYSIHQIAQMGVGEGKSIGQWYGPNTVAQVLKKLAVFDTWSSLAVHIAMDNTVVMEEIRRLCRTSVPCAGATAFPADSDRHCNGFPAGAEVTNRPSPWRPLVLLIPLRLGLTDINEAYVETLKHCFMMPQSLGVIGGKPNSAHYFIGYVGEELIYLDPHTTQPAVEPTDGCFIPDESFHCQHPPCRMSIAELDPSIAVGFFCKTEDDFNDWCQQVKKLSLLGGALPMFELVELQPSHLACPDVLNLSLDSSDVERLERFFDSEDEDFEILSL

[7] = tested on: Streptococcus sp. 'group A'; test: growth inhibition of control SK(-) GAS strain, dose response, counter-screen for streptokinase expression inhibitor project, luminescence, kanamycin, BacTiterGlo, confirmation (AID 1900); assay type: functional, organism-based
[8] = tested on: Streptococcus; test: Group A Streptococcus viability loss, dose response, counter-screen for streptokinase expression inhibitor project, luminescence, BacTiterGlo (AID 1915); assay type: functional, organism-based;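 further: potency for reduction of bacterial viability or growth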
[9] = target: T5, Carboxy-terminal domain RNA polymerase II polypeptide A small phosphatase 1 (Homo sapiens, UniProt Q9GZU7); test: inhibitors of CTDSP1, concentration-response testing, biochemical assay, absorbance-based, actives from ultra-high-throughput screening (AID 540297); assay type: functional
T5 sequence (Q9GZU7 whole entry): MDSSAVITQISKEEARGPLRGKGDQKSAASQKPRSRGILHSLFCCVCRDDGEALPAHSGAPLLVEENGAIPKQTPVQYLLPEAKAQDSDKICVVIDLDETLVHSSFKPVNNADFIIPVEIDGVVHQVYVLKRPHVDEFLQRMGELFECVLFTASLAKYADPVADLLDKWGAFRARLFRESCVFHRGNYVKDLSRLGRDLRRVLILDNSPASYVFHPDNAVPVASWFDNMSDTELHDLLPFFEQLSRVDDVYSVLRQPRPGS

[10] = target: Prothrombin (Bos taurus, UniProt P00735); test: thrombin inhibition, dose response, biochemical, fluorescence polarization, uHTS hits (AID 602369); assay type: functional
[11] = target: 26S proteasome non-ATPase regulatory subunit 14 (Homo sapiens, UniProt O00487); test: inhibition of proteasome subunit RPN11 – biochemical, fluorescence polarization, uHTS hits, confirmation (AID 602368); assay type: functional
[12] = target: 72 kDa type IV collagenase (Homo sapiens, UniProt P08253); test: Dose Response validation of uHTS RPN11 inhibitor hits using a MMP-2 Fluorescence assay.; assay type: functional
[13] = HepG2 cell cytotoxicity, dose response, cytotoxicity control for non-replicating M. tuberculosis project (AID 489018); assay type: functional; details: Mycobacterium tuberculosis
[14] = THP-1 cell cytotoxicity, dose response, cytotoxicity control for non-replicating M. tuberculosis project (AID 489025); assay type: functional
[15] = C. albicans growth with fluconazole, confirmation, fluorescence, retest (AID 2467); assay type: functional, cell-based
[16] = tested on: H4; test: Luminescence Cell-Based Dose Response HTS to Identify Activators of 5'UTR Stem-Loop Driven Prion Protein mRNA Translation in H4 Neuroglioblastoma Cells. [Related pubchem assays: 1829 (Project Summary), 1814 (Primary HTS)]; assay type: functional; details: Homo sapiens
[17] = Vero E6 cell cytotoxicity, dose response, cytotoxicity control for non-replicating M. tuberculosis project, secondary assay (AID 492998); assay type: functional, VeroE6; details: Vero C1008
[18] = Luminescence Cell-Based Dose Response HTS to Identify Activators of Luciferase Translation or Activity in H4 […] Cells. [Related pubchem assays: 1829 (Project Summary), 1814 (Primary HTS)]; assay type: functional
[19] = Luminescence Cell-Based Dose Confirmation HTS to Identify Activators of 5'UTR Stem-Loop Driven Alpha-Synuclein mRNA Translation in H4 Neuroglioblastoma Cells. [Related pubchem assays: 1829 (Project Summary), 1814 (Primary HTS)]; assay type: functional
[20] = cells; assay type: functional
[21] = tested on: Vero; test: cells; assay type: functional; details: Chlorocebus sabaeus
[22] = NIH-3T3 fibroblast cytotoxicity, dose response, cytotoxicity control, cell-based, fluorescence, Alamar Blue, secondary assay (AID 2327); assay type: functional;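 further: NIH-3T3 mouse fibroblasts cultured with fluconazole at 8 µg/mL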
[23] = tested on: INS1; test: beta cell apoptosis inhibitors, cytokine rescue, dose response, luminescence, retest (AID 449756); assay type: functional, cell-based; details: Rattus norvegicus;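 further: cell death triggered by IL-1 beta plus TNF-alpha plus IFN-gamma mixture; protective hits raise ATP signal compared with cytokine alone wells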
[24] = target: T6, Microphthalmia-associated transcription factor (Homo sapiens, UniProt O75030); test: TRPM1 promoter luciferase signal decrease, dose response, MITF inhibitor project, cell-based, SK-MEL-5, cherry-picked, set 3 (AID 493073); assay type: functional
T6 sequence (O75030 whole entry): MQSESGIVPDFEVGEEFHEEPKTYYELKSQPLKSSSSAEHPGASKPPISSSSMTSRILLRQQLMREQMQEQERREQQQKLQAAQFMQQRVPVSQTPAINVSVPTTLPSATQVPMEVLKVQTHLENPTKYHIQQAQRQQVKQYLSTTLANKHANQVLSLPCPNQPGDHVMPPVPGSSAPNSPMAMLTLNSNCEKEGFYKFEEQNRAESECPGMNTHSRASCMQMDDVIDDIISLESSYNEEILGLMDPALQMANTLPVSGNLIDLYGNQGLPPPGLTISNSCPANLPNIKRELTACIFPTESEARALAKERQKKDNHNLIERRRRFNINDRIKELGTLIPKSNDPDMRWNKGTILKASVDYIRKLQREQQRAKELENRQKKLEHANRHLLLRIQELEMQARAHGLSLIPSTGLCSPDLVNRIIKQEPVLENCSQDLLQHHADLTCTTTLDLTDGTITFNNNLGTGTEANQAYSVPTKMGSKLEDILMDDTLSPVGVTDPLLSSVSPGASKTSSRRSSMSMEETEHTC

[25] = tested on: A-375; test: MITF: Counter assay: A375 proliferation Measured in Cell-Based System Using Plate Reader - 2084-03_Inhibitor_Dose_DryPowder_Activity. [Related pubchem assays (depositor defined):AID488944]; assay type: functional; details: Homo sapiens
[26] = cytotoxicity in HEK-293T cells, dose response, cytotoxicity control for TCR NF-kB inhibitor project, luminescence, T-cell screen hits (AID 489026); assay type: functional, cell-based;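 further: cells exposed to compound about 14 hours before the viability readout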
[27] = tested on: HEK293; test: NOD1 signaling inhibitors, primary screen, cell-based, luminescence, uHTS (AID 1578); assay type: functional; details: Homo sapiens
[28] = tested on: HEK293; test: NOD2 signaling inhibitors in MDP-stimulated cells, cell-based, uHTS, luminescence (AID 2001); assay type: functional; details: Homo sapiens
[29] = tested on: HEK293; test: cells; assay type: functional, cell-based; details: Homo sapiens
[30] = tested on: HEK293; test: cells; assay type: functional, cell-based; details: Homo sapiens; remark: listed apart in the source

T2 sequence (Q9UBE0 whole entry): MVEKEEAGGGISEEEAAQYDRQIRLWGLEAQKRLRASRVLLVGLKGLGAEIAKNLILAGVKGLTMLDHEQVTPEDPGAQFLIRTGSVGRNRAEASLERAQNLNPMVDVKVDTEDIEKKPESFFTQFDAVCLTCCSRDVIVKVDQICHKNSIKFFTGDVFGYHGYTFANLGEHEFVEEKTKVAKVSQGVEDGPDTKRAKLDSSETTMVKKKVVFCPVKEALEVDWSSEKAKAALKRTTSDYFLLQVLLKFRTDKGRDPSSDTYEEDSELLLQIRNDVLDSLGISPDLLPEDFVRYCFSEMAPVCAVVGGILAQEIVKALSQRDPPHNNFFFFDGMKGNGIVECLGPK
T2 sequence (Q9UBT2 whole entry): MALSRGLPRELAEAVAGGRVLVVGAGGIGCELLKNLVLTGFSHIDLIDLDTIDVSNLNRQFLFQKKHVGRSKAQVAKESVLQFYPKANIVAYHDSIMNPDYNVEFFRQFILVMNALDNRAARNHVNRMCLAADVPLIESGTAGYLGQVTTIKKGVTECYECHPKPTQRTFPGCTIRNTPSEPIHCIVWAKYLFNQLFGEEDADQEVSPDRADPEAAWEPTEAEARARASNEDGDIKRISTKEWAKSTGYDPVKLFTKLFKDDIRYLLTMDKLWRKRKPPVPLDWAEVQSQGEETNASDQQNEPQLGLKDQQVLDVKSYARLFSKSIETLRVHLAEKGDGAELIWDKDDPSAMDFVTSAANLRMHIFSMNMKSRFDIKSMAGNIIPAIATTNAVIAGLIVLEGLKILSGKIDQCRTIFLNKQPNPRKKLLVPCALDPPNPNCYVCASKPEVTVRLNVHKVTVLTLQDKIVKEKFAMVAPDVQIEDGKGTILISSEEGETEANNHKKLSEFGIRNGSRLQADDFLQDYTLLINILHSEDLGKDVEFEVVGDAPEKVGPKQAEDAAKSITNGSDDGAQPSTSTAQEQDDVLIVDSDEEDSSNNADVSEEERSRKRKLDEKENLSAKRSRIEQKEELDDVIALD
26S proteasome non-ATPase regulatory subunit 14, sequence (O00487 whole entry): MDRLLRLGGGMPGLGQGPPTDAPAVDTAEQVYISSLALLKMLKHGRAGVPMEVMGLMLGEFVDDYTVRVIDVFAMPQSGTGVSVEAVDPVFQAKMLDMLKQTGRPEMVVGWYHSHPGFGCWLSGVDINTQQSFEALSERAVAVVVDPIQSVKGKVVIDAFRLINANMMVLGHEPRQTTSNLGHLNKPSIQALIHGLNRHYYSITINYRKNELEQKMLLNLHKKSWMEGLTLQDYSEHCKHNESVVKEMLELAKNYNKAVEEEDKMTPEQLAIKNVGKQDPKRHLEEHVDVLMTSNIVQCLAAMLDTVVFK
72 kDa type IV collagenase, sequence (P08253 whole entry): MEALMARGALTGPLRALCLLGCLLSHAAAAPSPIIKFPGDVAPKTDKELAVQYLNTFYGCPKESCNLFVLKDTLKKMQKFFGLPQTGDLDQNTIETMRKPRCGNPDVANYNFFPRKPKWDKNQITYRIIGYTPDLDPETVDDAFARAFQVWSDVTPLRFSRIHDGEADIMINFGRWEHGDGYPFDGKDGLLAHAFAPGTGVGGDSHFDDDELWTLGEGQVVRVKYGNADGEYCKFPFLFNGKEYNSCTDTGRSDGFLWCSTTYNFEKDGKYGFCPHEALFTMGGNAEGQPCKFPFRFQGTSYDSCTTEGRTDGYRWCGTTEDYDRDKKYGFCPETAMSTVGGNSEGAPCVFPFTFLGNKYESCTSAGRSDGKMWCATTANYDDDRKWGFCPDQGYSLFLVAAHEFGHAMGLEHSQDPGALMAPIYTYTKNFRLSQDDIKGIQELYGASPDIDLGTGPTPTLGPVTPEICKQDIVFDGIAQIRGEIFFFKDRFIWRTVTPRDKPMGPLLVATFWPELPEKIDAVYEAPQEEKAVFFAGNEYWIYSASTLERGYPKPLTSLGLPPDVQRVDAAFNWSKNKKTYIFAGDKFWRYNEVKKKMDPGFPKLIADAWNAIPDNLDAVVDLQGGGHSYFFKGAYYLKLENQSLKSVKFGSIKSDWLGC
Phospholipase A2, sequence (P04054 whole entry): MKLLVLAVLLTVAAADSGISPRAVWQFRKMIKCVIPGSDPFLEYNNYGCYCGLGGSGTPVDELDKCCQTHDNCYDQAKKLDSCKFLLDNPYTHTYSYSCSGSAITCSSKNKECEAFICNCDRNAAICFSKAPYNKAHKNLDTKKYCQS

SMILES: O=C(O/N=C(/c1ccccc1)c1ccncc1)c1ccccc1[N+](=O)[O-]
- IC50 [1]: 13.2 µM (active)

SMILES: COc1cccc(-c2nc(SCC(=O)Nc3nc(-c4ccccc4)c(C)s3)[nH]c(=O)c2C#N)c1
- IC50 [2]: 15 µM (active)
- IC50 [3]: 15.2 µM (active)
- IC50 [4]: 5.37 µM (active)
- IC50 [5]: 21.2 µM (active)
- IC50 [6]: 14.9 µM (active)

SMILES: Oc1c(Br)cc(Br)cc1/C=N/c1nc2c(s1)CCCC2
- EC50 [7]: 7.39 µM (active)
- EC50 [8]: 7.68 µM (active)
- IC50 [1]: 13.2 µM (active)

SMILES: O=C(CSc1nc2c(sc3ccccc32)c(=O)n1CCO)NCc1ccco1
- IC50 [9]: 8.39 µM (active)

SMILES: COc1cc(OC)c2ccc(=O)oc2c1C(CC(=O)N1CCCC(C)C1)c1ccc2c(c1)OCO2 (centres undefined)
- IC50 [9]: 14.3 µM (active)

SMILES: Cc1nn(-c2ccccc2)nc1C(=O)Nc1nnc(C(F)(F)F)s1
- IC50 [1]: 17.4 µM (active)

SMILES: O=C(N/N=C/c1ccccc1F)c1cc2c(ccc3ccccc32)o1
- IC50 [10]: 77.5 µM (active)
- IC50 [11]: 18.2 µM (active)
- IC50 [12]: > 100 µM (inactive)
- IC50 [9]: 4.45 µM (active)

SMILES: O=C(Nc1cccc2ccccc12)c1ccc([N+](=O)[O-])o1
- CC50 [13]: 15.1 µM (active)
- CC50 [14]: 12.7 µM (active)
- EC50 [15]: 1.51 µM (active)
- EC50 [16]: > 120 µM (not active)
- CC50 [17]: 6.37 µM (active)
- EC50 [18]: > 120 µM (not active)
- EC50 [19]: > 120 µM (not active)
- IC50 [20]: 5.22 µM (active)
- CC50 [21]: 17.8 µM (active)
- EC50 [22]: > 150 µM (inactive)

SMILES: COc1ccc(C(=O)/C(C#N)=N/Nc2ccc([N+](=O)[O-])cc2)cc1
- AC50 [23]: 1.9 µM (active)
- AC50 [24]: 8.26 µM (active)
- AC50 [25]: 28.8 µM (active)
- IC50 [26]: > 80 µM (inactive)

SMILES: COc1cc2ncnc(NCCc3ccccc3)c2cc1OC
- EC50 [27]: 19 µM (active)
- IC50 [28]: 19.3 µM (inactive)
- IC50 [29]: > 20 µM (inactive)
- IC50 [30]: > 20 µM (inactive)
